pEC50, pIC50: −log10 of the molar value. A value given as a limit tells only on which side of the number the result lay.

The target of one assay is T1, Cbl-b (Homo sapiens, UniProt Q13191).
T1 construct: biotin (biotinylated)
Nature of the assay: Cbl-b probe displacement HTRF binding assay. As to conditions: 0.4 nM biotinylated Cbl-b, 150 nM BODIPY probe. On the procedure:
The affinity with which compounds of the present dislcosure bind to Cbl-b was assessed using probe displacement homologous time resolved fluorescence (HTRF) assays. […] The assays were performed in assay buffer consisting of 20 mM Hepes, 150 mM NaCl, 0.01% Triton X-100, 0.5 mM TCEP, 0.01% BSA. On the day of the assay, a 20 point, 1:2 master serial dilution of each compound was prepared in DMSO to span a final concentration range of […] to 0 nM. Two hundred nanoliters of diluted compound was added to each well of a 384-well plate. Fifteen microliters of biotinylated-Cbl-b resuspended in assay buffer were added to each well and the plate incubated for 60 minutes at room temperature prior to addition of 5 μL of BODIPY™ probe in assay buffer. […] After a further 15 minutes of incubation at room temperature, 5 μl of Streptavidin-Terbium cryptate reagent at 5-fold final concentration was added to each well of the 384-well plate. Binding of a probe to Cbl-b results in an increase of HTRF signal. […] Percentage maximum activity in each test well was calculated based on DMSO (maximum activity, 0% displacement) and no protein control wells (baseline activity, 100% displacement). Binding affinity was determined from a dose response curve fitted using a standard four parameter fit equation.
(In general: Time-resolved FRET reads energy transfer from a long-lived donor to a nearby acceptor.)

A further assay has as its system Jurkat cells. The experiment in a line: IL-2 secretion assay in CD3/CD28-activated Jurkat cells (AlphaLISA). Type of assay: cell-based. The settings on record: Homo sapiens, CD3/CD28 T Cell Activator, 24 h, IL-2 AlphaLISA. The procedure: Certain compounds were also evaluated in an IL-2 secretion assay. On the day of the assay, a 16 point, 1:2 master serial dilution of each compound was prepared in Opti-MEM to span a final concentration range of 10 μM to 300 pM. Assays were set up in CORNING® tissue culture-treated 384-well microplates containing 60 nL of each dilution. […] 50,000 cells/well and added to the compound plates. After a short spin (1200 rpm for 1 min), the plates were incubated at 37° C. for 1 hour. The cells were activated by adding 15 μL of IMMUNOCULT™ Human CD3/CD28 T Cell Activator ([…] Technologies) diluted in Opti-MEM. […] The AiphaLISA signal was measured using an EnVision plate reader (PerkinElmer). EC50 values were determined by fitting the data to a standard 4-parameter logistic equation.

T1 sequence (Q13191 whole entry, species assumed): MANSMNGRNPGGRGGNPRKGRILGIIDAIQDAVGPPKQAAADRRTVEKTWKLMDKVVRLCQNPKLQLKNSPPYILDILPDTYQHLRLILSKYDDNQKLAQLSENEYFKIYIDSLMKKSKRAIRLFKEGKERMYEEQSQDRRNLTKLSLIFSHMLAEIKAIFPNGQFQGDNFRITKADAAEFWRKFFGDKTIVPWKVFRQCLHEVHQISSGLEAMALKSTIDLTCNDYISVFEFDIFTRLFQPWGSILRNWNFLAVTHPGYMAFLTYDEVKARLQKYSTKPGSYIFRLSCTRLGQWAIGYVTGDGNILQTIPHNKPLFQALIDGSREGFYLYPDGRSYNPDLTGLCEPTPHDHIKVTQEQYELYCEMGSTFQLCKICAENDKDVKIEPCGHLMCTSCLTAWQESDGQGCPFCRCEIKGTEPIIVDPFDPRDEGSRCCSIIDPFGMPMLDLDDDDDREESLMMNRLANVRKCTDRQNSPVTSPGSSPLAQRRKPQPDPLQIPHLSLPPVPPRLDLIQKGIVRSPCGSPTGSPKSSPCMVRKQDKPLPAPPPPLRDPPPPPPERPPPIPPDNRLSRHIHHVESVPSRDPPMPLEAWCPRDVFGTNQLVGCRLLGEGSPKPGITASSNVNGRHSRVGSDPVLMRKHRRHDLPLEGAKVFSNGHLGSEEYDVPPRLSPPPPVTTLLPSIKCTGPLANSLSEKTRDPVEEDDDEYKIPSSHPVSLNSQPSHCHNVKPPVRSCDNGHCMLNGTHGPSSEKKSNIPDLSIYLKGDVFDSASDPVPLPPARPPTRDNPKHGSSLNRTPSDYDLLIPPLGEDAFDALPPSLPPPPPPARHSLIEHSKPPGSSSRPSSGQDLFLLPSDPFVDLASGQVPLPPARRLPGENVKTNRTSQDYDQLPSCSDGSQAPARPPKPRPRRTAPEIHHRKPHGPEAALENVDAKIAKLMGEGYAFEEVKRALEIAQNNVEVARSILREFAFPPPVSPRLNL

Usually pIC50 stands for the IC50 on a negative log10 scale, so that one unit is a factor of ten. Usually pEC50 stands for −log10 of the EC50, conventionally taken in molar units. Low values mean a high EC50, high ones a low EC50. Consider `CC1CC(c2cccc(-n3cc(C4CC4)c4c(C#N)c(CN5CCC[C@H](C)C5)[nH]c4c3=O)c2)(c2nncn2C)C1` (mixture of isomers) [Example 134, 4-Cyclopropyl-2-{[(3S)-3-methylpiperidin-1-yl]methyl}-7-oxo-6-{3-[(1R,3S)-3-methyl-1-(4-methyl-4H-1,2,4-triazol-3-yl)cyclobutyl]phenyl}-1H,6H,7H-pyrrolo[2,3-c]pyridine-3-carbonitrile], for which the pIC50 on Cbl-b is more than 7.00. Besides, in the assay on Jurkat cells, the negative-log EC50 (pEC50) was more than 7.00.
`CC1CC(c2cccc(-n3cc(C4CC4)c4c(S(C)(=O)=O)c(CN5CCC[C@H](C)C5)[nH]c4c3=O)c2)(c2nncn2C)C1` (mixture of isomers) [Example 135, 4-Cyclopropyl-3-methanesulfonyl-2-{[(3S)-3-methylpiperidin-1-yl]methyl}-6-{3-[(1R,3S)-3-methyl-1-(4-methyl-4H-1,2,4-triazol-3-yl)cyclobutyl]phenyl}-1H,6H,7H-pyrrolo[2,3-c]pyridin-7-one] showed a pIC50 on Cbl-b of more than 7.00. In the assay with Jurkat cells, the pEC50 was more than 7.00.
As for `CC1CC(c2cccc(-n3cc(C(=O)O)c4cn[nH]c4c3=O)c2)(c2nncn2C)C1` (mixture of isomers) [Example 141, 7-Oxo-6-{3-[(1R,3S)-3-methyl-1-(4-methyl-4H-1,2,4-triazol-3-yl)cyclobutyl]phenyl}-1H,6H,7H-pyrazolo[3,4-c]pyridine-4-carboxylic acid], the pIC50 on Cbl-b was 5.30 to 6.00. The molecule further had a pEC50 in the assay with Jurkat cells of less than 5.30.
The corresponding values for `CC1CC(c2cccc(-n3cnc4c(C(F)(F)F)c(CN5CCC[C@H](C)C5)[nH]c4c3=O)c2)(c2nncn2C)C1` (mixture of isomers) [Example 143, 6—{[(3S)-3-Methylpiperidin-1-yl]methyl}-3-{3-[(1R,3S)-3-methyl-1-(4-methyl-4H-1,2,4-triazol-3-yl)cyclobutyl]phenyl}-7-(trifluoromethyl)-3H,4H,5H-pyrrolo[3,2-d]pyrimidin-4-one] are more than 7.00 and 6.00 to 7.00.
The corresponding values for `Cn1cnnc1[C@]1(c2cccc(-n3cc(C4CC4)c4nc[nH]c4c3=O)c2)C[C@@H](C)C1` (single isomer, unassigned) [Example 12, 7-cyclopropyl-5-{3-[(1s,3r)-3-methyl-1-(4-methyl-4H-1,2,4-triazol-3-yl)cyclobutyl]phenyl}-3H,4H,5H-imidazo[4,5-c]pyridin-4-one] are 6.00 to 7.00 and 5.30 to 6.00.
The corresponding values for `Cn1cnnc1[C@]1(c2cccc(-n3cc(C4CC4)c4c(C#N)c[nH]c4c3=O)c2)C[C@H](C)C1` (single isomer, unassigned) [Example 14, 4-Cyclopropyl-7-oxo-6-{3-[(1r,3s)-3-methyl-1-(4-methyl-4H-1,2,4-triazol-3-yl)cyclobutyl]phenyl}-1H,6H,7H-pyrrolo[2,3-c]pyridine-3-carbonitrile] are more than 7.00 and 6.00 to 7.00.
On to `Cn1cncc1-c1c[nH]c2c(=O)n(-c3cccc([C@]4(c5nncn5C)C[C@@H](C)C4)c3)cc(C3CC3)c12` (single isomer, unassigned) [Example 34], for which the pIC50 at Cbl-b is more than 7.00. The pEC50 with Jurkat cells is 5.30 to 6.00.
The corresponding values for `Cn1cnnc1[C@]1(c2cccc(-n3cc(C(F)(F)F)c4cc[nH]c4c3=O)c2)C[C@H](C)C1` (single isomer, unassigned) [Example 36] are more than 7.00 and 6.00 to 7.00.
On Cbl-b, `Cn1cnnc1[C@]1(c2cccc(-n3cc(C(F)(F)F)c4cc[nH]c4c3=O)c2)C[C@@H](C)C1` (single isomer, unassigned) [Example 37] showed a pIC50 of more than 7.00. In the assay on Jurkat cells, this molecule had a pEC50 of 6.00 to 7.00.
The corresponding values for `C[C@H]1CCCN(Cc2cc3c(S(C)(=O)=O)cn(-c4cccc([C@]5(c6nncn6C)C[C@@H](C)C5)c4)c(=O)c3[nH]2)C1` (single isomer, unassigned) [Example 107] are more than 7.00 and more than 7.00.
`Cn1cnnc1[C@]1(c2cccc(-n3cc(S(C)(=O)=O)c4cc[nH]c4c3=O)c2)C[C@H](C)C1` (single isomer, unassigned) [Example 108, 6-[3-[3-methyl-1-(4-methyl-1,2,4-triazol-3-yl)cyclobutyl]phenyl]-4-methylsulfonyl-1H-pyrrolo[2,3-c]pyridin-7-one]: the pIC50 at Cbl-b was 6.00 to 7.00. In the assay with Jurkat cells, the pEC50 is less than 5.30.
As to `Cn1cnnc1[C@]1(c2cccc(-n3cc(C4CC4)c4[nH]c(=O)[nH]c4c3=O)c2)C[C@H](C)C1` (single isomer, unassigned) [Example 117, 7-cyclopropyl-5-[3-[cis-3-methyl-1-(4-methyl-1,2,4-triazol-3-yl)cyclobutyl]phenyl]-1,3-dihydroimidazo[4,5-c]pyridine-2,4-dione], the pIC50 at Cbl-b is 6.00 to 7.00. Moreover, the pEC50 in the assay with Jurkat cells is less than 5.30.
The corresponding values for `Cn1cnnc1[C@]1(c2cccc(-n3cc(C4CC4)c4[nH]c(=O)[nH]c4c3=O)c2)C[C@@H](C)C1` (single isomer, unassigned) [Example 118, 7-cyclopropyl-5-[3-[trans-3-methyl-1-(4-methyl-1,2,4-triazol-3-yl)cyclobutyl]phenyl]-1,3-dihydroimidazo[4,5-c]pyridine-2,4-dione] are 6.00 to 7.00 and less than 5.30.
The corresponding values for `CC1CC(c2cccc(-n3cc(C4CC4)c4cc[nH]c4c3=O)c2)(c2nncn2C)C1` (stereo not drawn) [Example 4, 4-cyclopropyl-6-[3-[3-methyl-1-(4-methyl-1,2,4-triazol-3-yl)cyclobutyl]phenyl]-1H-pyrrolo[2,3-c]pyridin-7-one] are 6.00 to 7.00 and 5.30 to 6.00.
In the case of `Cn1cnnc1[C@]1(c2cccc(-n3cc(C4CC4)c4cn[nH]c4c3=O)c2)C[C@H](C)C1` [Example 7, 4-cyclopropyl-6-{3-[(1r,3s)-3-methyl-1-(4-methyl-4H-1,2,4-triazol-3-yl)cyclobutyl]phenyl}-1H,6H,7H-pyrazolo[3,4-c]pyridin-7-one], on Cbl-b, the pIC50 was more than 7.00. The molecule further had a negative-log EC50 (pEC50) in the assay with Jurkat cells of 5.30 to 6.00.
The corresponding values for `CC1CC(c2cccc(-n3cc(C4CC4)c4cc(CO)[nH]c4c3=O)c2)(c2nncn2C)C1` (stereo not drawn) [Example 8, 4-cyclopropyl-2-(hydroxymethyl)-6-[3-[3-methyl-1-(4-methyl-1,2,4-triazol-3-yl)cyclobutyl]phenyl]-1H-pyrrolo[2,3-c]pyridin-7-one] are 5.30 to 6.00 and 5.30 to 6.00.
As for `Cn1cnnc1C1(c2cccc(-n3cc(C4CC4)c4cc[nH]c4c3=O)c2)CCC1` [Example 9, 4-cyclopropyl-6-[3-[1-(4-methyl-1,2,4-triazol-3-yl)cyclobutyl]phenyl]-1H-pyrrolo[2,3-c]pyridin-7-one], the pIC50 at Cbl-b was 6.00 to 7.00. In the assay on Jurkat cells, this molecule gave a pEC50 of 5.30 to 6.00.
Turning to `Cn1cnnc1[C@]1(c2cccc(-n3cc(C#N)c4cc[nH]c4c3=O)c2)C[C@H](C)C1` [Example 38, 7-oxo-6-{3-[(1r,3s)-3-methyl-1-(4-methyl-4H-1,2,4-triazol-3-yl)cyclobutyl]phenyl}-1H,6H,7H-pyrrolo[2,3-c]pyridine-4-carbonitrile], the pIC50 on Cbl-b is more than 7.00. For the same molecule, the negative logarithm of the EC50 (pEC50) with Jurkat cells was 5.30 to 6.00.
The corresponding values for `CC1CC(c2cccc(-n3cc(C4CC4)c4cc(CNC5(C)CCC5)[nH]c4c3=O)c2)(c2nncn2C)C1` (stereo not drawn) [Example 39, 4-cyclopropyl-6-{3-[3-methyl-1-(4-methyl-4H-1,2,4-triazol-3-yl)cyclobutyl]phenyl}-2-{[(1-methylcyclobutyl)amino]methyl}-1H,6H,7H-pyrrolo[2,3-c]pyridin-7-one] are more than 7.00 and more than 7.00.
The corresponding values for `CC1CC(c2cccc(-n3cc(C4CC4)c4cc(CN[C@@H]5COC[C@@H]5O)[nH]c4c3=O)c2)(c2nncn2C)C1` (stereo partly drawn) [Example 40, 4-cyclopropyl-2-({[(3R,4R)-4-hydroxyoxolan-3-yl]amino}methyl)-6-{3-[3-methyl-1-(4-methyl-4H-1,2,4-triazol-3-yl)cyclobutyl]phenyl}-1H,6H,7H-pyrrolo[2,3-c]pyridin-7-one] are more than 7.00 and 6.00 to 7.00.
The corresponding values for `CC1CC(c2cccc(-n3cc(C4CC4)c4cc(CNC5(C(F)(F)F)CC5)[nH]c4c3=O)c2)(c2nncn2C)C1` (stereo not drawn) [Example 41, 4-cyclopropyl-6-{3-[(1r,3s)-3-methyl-1-(4-methyl-4H-1,2,4-triazol-3-yl)cyclobutyl]phenyl}-2-({[1-(trifluoromethyl)cyclopropyl]amino}methyl)-1H,6H,7H-pyrrolo[2,3-c]pyridin-7-one] are 6.00 to 7.00 and 5.30 to 6.00.

The record behind these values is patent US20260028336A1 (Arcus Biosciences, Inc., priority 2022, published 2026).
